Reference: US8912169B2, “Beta-lactamase inhibitors” (VenatoRx Pharmaceuticals, Inc., priority 2012, dated 2014)
Read-outs that look alike come from different tables or passages of the source.

Assays:
Type in all cases: biochemical
VIM-2 = target: T1, VIM-2 (Escherichia coli, UniProt Q5U7L7); experiment: β-lactamase enzyme inhibition, VIM-2; settings: substrate Nitrocefin 100 μM, 486 nm; read-out: Class B VIM-2 IC50
T1 construct: made in house; host or cells: E. coli BL21(DE3)
Procedure: For Vim-2 metallo β-lactamase, the procedure was identical with the following exceptions, first the protein was not pH adjusted to pH 5 with 50 mM sodium acetate, second, the chromatography step was changed to a 5 ml Q sepharose anion exchange column pre-equilibrated with 50 mM Hepes pH 7.5, and elution of the protein was achieved by a linear gradient of NaCl (0-600 mM). Finally, the VIM-2 purification required a second run (3rd step) on the Q sepharose anion exchange column to achieve acceptable purity (>90%).
(§1) An equal volume of diluted enzyme stock was added, and the plates were incubated at 37° C. for 15 min. Nitrocefin was used as substrate for p99 AmpC, VIM-2 and OXA-1 and dispensed into each well at a final concentration of 100 μM. Absorbance at 486 nm was immediately monitored for 10 min using a Biotek Powerwave XS2 microplate spectrophotometer using the GENS software package (Biotek Instruments, Winooski Vt.). In an analogous fashion, imipenem was used as substrate for Kpc-2 and Cefotaxime was used for SHV-5, while changes in absorbance upon hydrolysis of the β-lactam ring were monitored at 300 nm and 260 nm respectively in UV-transparent 96-well microtiter assay plates. Maximum rates of hydrolysis were compared to those in control wells (without inhibitors), and percentages of enzyme inhibition were calculated for each concentration of inhibitor. The concentration of inhibitor needed to reduce the initial rate of hydrolysis of substrate by 50% (IC50) was calculated as the residual activity of β-lactamase at 486 nm using GraFit version 7 kinetics software package (Erithacus Software, Surrey, UK).
(§2) Using the methodology described above, examples of the current invention were evaluated for their ability to inhibit β-lactamase enzymes from all four Ambler classifications (A through D). […] NT=Not tested.

OXA-1 = target: T2, OXA-1 (Escherichia coli, UniProt P13661); experiment: β-lactamase enzyme inhibition, OXA-1; settings: substrate Nitrocefin 100 μM, 486 nm; read-out: Class D OXA-1 IC50
T2 construct: made in house; host or cells: E. coli BL21(DE3)
Procedure: (§3) For SHV-5, Kpc-2, p99AmpC and OXA-1 β-lactamases, E. coli BL21(DE3) bacterial cells carrying expression plasmids (expressed as native untagged proteins) for the individual β-lactamases were grown in 1 L of Superbroth (Teknova Inc. Hollister, Calif.) supplemented with 100 μg/mlkanamycin selection and 1×5052 (0.5% glycerol, 0.05% glucose and 0.2% α-lactose) at 35° C. for 18-20 hours. Cells were harvested by centrifugation (4,000×g, 4° C., 20 min), resuspended in 50 ml of 10 mM HEPES pH 7.5 ( 1/20 of the initial volume). The cells were lysed by sonication (5 pulses of 45 seconds) at 45 W on ice. The lysates were clarified by centrifugation at 10,000×g for 40 minutes at 4° C. Samples were diluted 5-fold in 50 mM sodium acetate pH 5.0, stored overnight at 4° C., after which they were centrifuged at 10,000×g for 30 minutes to clarify, and filtered through 0.45 μm filters. The samples were loaded onto a 5 ml Capto S sepharose cation exchange column (GE Healthcare) pre-equilibrated with 50 mM sodium acetate pH 5.0. The column was washed with 5 column volumes of 50 mM sodium acetate pH 5.0 to wash out unbound protein and a linear gradient of NaCl (0 to 500 mM) was used to elute the protein (over 16 CV) from the column. Fractions were assayed for β-lactamase activity using Centa (Calbiochem, Gibbstown, N.J.) or Nitrocefin (EMD Millipore chemicals, Darmstadt, Germany) as a reporter β-lactamase substrate for activity in the isolated fractions. Active fractions were pooled, concentrated and further purified by gel filtration chromatography on a Superdex 75 prep grade gel filtration column (GE Healthcare, Piscataway, N.J.) pre-equilibrated in 50 mM Hepes pH 7.5, 150 mM NaCl. Active fractions were pooled concentrated, quantitated by BCA protein determination (Thermo Scientific, Rockford, Ill.), dialyzed into PBS and frozen at −80° C. in 20% glycerol until use.
as §1, §2

p99 AmpC = target: T3, p99 AmpC (Enterobacter cloacae, UniProt P05364); experiment: β-lactamase enzyme inhibition, p99 AmpC
T3 construct: made in house; host or cells: E. coli BL21(DE3)
Procedure: as §3, §1, §2

KPC-2 = target: T4, KPC-2 (Klebsiella pneumoniae, UniProt Q9F663); experiment: β-lactamase enzyme inhibition, KPC-2; settings: substrate imipenem, 300 nm; read-out: Class A KPC-2 IC50
T4 construct: made in house; host or cells: E. coli BL21(DE3)
Procedure: as §3, §1, §2

SHV-5 = target: T5, SHV-5 (Klebsiella pneumoniae, UniProt P0A3M1); experiment: β-lactamase enzyme inhibition, SHV-5
T5 construct: made in house; host or cells: E. coli BL21(DE3)
Procedure: as §3, §1, §2

[1] = read-out: Class A SHV-5 IC50, substrate Cefotaxime, 260 nm

Row | SMILES | IC50 (VIM-2) [nM] | IC50 (OXA-1) [nM] | IC50 (p99 AmpC) [nM] | IC50 (KPC-2) [nM] | IC50 (SHV-5) [nM] | IC50 (SHV-5; [1]) [nM]
1 | NC[C@H]1CC[C@H](C(=O)N[C@H]2Cc3cccc(C(=O)O)c3OB2O)CC1 [Example 1, (R)-3-(trans-4-(aminomethyl)cyclohexanecarboxamido)-2-hydroxy-3,4-dihydro-2H-benzo[e][1,2]oxaborinine-8-carboxylic acid] | 100 to 1000 | < 100 | < 100 | 100 to 1000 | 1000 to 10000 | –
2 | N[C@H]1CC[C@H](C(=O)N[C@H]2Cc3cccc(C(=O)O)c3OB2O)CC1 [Example 2, (R)-3-(trans-4-aminocyclohexanecarboxamido)-2-hydroxy-3,4-dihydro-2H-benzo[e][1,2]oxaborinine-8-carboxylic acid] | 100 to 1000 | 100 to 1000 | < 100 | 100 to 1000 | 10000 to 100000 | –
3 | NC[C@H]1CC[C@H](CC(=O)N[C@H]2Cc3cccc(C(=O)O)c3OB2O)CC1 [Example 3] | 1000 to 10000 | < 100 | < 100 | 100 to 1000 | < 100 | –
4 | N=C(N)NC[C@H]1CC[C@H](CC(=O)N[C@H]2Cc3cccc(C(=O)O)c3OB2O)CC1 [Example 4, (R)-3-(2-(trans-4-(guanidinomethyl)cyclohexyl)acetamido)-2-hydroxy-3,4-dihydro-2H-benzo[e][1,2]oxaborinine-8-carboxylic acid] | 100 to 1000 | < 100 | < 100 | < 100 | < 100 | –
5 | CN(C)CC(=O)NC[C@H]1CC[C@H](CC(=O)N[C@H]2Cc3cccc(C(=O)O)c3OB2O)CC1 [Example 5, (R)-3-(2-(trans-4-((2-(dimethylamino)acetamido)methyl)cyclohexyl)acetamido)-2-hydroxy-3,4-dihydro-2H-benzo[e][1,2]oxaborinine-8-carboxylic acid] | 1000 to 10000 | < 100 | < 100 | < 100 | < 100 | –
6 | N[C@H]1CC[C@H](CC(=O)N[C@H]2Cc3cccc(C(=O)O)c3OB2O)CC1 [Example 6, (R)-3-(2-(trans-4-aminocyclohexyl)acetamido)-2-hydroxy-3,4-dihydro-2H-benzo[e][1,2]oxaborinine-8-carboxylic acid] | 100 to 1000 | < 100 | < 100 | < 100 | < 100 | –
7 | N[C@H]1CC[C@@H](CC(=O)N[C@H]2Cc3cccc(C(=O)O)c3OB2O)CC1 [Example 7, (R)-3-(2-(cis-4-aminocyclohexyl)acetamido)-2-hydroxy-3,4-dihydro-2H-benzo[e][1,2]oxaborinine-8-carboxylic acid] | 1000 to 10000 | 100 to 1000 | < 100 | < 100 | < 100 | –
8 | CN(C)C[C@H]1CC[C@H](CC(=O)N(C)[C@H]2Cc3cccc(C(=O)O)c3OB2O)CC1 [Example 8, (R)-3-(2-(trans-4-((dimethylamino)methyl)cyclohexyl)-N-methylacetamido)-2-hydroxy-3,4-dihydro-2H-benzo[e][1,2]oxaborinine-8-carboxylic acid] | 1000 to 10000 | 100 to 1000 | < 100 | < 100 | < 100 | –
9 | N=C(N)N[C@H]1CC[C@H](CC(=O)N[C@H]2Cc3cccc(C(=O)O)c3OB2O)CC1 [Example 9, (R)-3-(2-(trans-4-guanidinocyclohexyl)acetamido)-2-hydroxy-3,4-dihydro-2H-benzo[e][1,2]oxaborinine-8-carboxylic acid] | 100 to 1000 | < 100 | < 100 | < 100 | < 100 | –
10 | NCCNC[C@H]1CC[C@H](CC(=O)N[C@H]2Cc3cccc(C(=O)O)c3OB2O)CC1 [Example 10, (R)-3-(2-(trans-4-((2-aminoethylamino)methyl)cyclohexyl)acetamido)-2-hydroxy-3,4-dihydro-2H-benzo[e][1,2]oxaborinine-8-carboxylic acid] | 100 to 1000 | 100 to 1000 | < 100 | < 100 | < 100 | –
11 | NCC1CCC(=CC(=O)N[C@H]2Cc3cccc(C(=O)O)c3OB2O)CC1 (stereo partly drawn) [Example 11, (3R)-3-(2-(4-(aminomethyl)cyclohexylidene)acetamido)-2-hydroxy-3,4-dihydro-2H-benzo[e][1,2]oxaborinine-8-carboxylic acid] | 1000 to 10000 | 100 to 1000 | < 100 | 1000 to 10000 | 100 to 1000 | –
12 | NCC1CCC(CC(=O)N[C@H]2Cc3cccc(C(=O)O)c3OB2O)(C[N+](=O)[O-])CC1 (stereo partly drawn) [Example 12, (R)-3-(2-(4-(aminomethyl)-1-(nitromethyl)cyclohexyl)acetamido)-2-hydroxy-3,4-dihydro-2H-benzo[e][1,2]oxaborinine-8-carboxylic acid] | 1000 to 10000 | 100 to 1000 | < 100 | 100 to 1000 | 100 to 1000 | –
13 | NC[C@H](N)C(=O)N[C@H]1CC[C@H](CC(=O)N[C@H]2Cc3cccc(C(=O)O)c3OB2O)CC1 [Example 13, (R)-3-(2-(trans-4-((S)-2,3-diaminopropanamido)cyclohexyl)acetamido)-2-hydroxy-3,4-dihydro-2H-benzo[e][1,2]oxaborinine-8-carboxylic acid] | 100 to 1000 | < 100 | < 100 | < 100 | < 100 | –
14 | N=C(N)N1CCN([C@H]2CC[C@H](CC(=O)N[C@H]3Cc4cccc(C(=O)O)c4OB3O)CC2)CC1 [Example 24, (R)-3-(2-(trans-4-(4-carbamimidoylpiperazin-1-yl)cyclohexyl)acetamido)-2-hydroxy-3,4-dihydro-2H-benzo[e][1,2]oxaborinine-8-carboxylic acid] | 1000 to 10000 | < 100 | – | < 100 | – | < 100
15 | NC1CN(C2CCC(CC(=O)N[C@H]3Cc4cccc(C(=O)O)c4OB3O)CC2)C1 (stereo partly drawn) [Example 35, (3R)-3-(2-(4-(3-aminoazetidin-1-yl)cyclohexyl)acetamido)-2-hydroxy-3,4-dihydro-2H-benzo[e][1,2]oxaborinine-8-carboxylic acid] | 100 to 1000 | < 100 | – | < 100 | – | < 100
16 | O=C(CC1CCC(NC2CNC2)CC1)N[C@H]1Cc2cccc(C(=O)O)c2OB1O (stereo partly drawn) [Example 36, (3R)-3-(2-(4-(azetidin-3-ylamino)cyclohexyl)acetamido)-2-hydroxy-3,4-dihydro-2H-benzo[e][1,2]oxaborinine-8-carboxylic acid] | 1000 to 10000 | < 100 | – | < 100 | – | < 100
17 | N=C(N)NC1CN(C2CCC(CC(=O)N[C@H]3Cc4cccc(C(=O)O)c4OB3O)CC2)C1 (stereo partly drawn) [Example 41, (3R)-3-(2-(4-(3-guanidinoazetidin-1-yl)cyclohexyl)acetamido)-2-hydroxy-3,4-dihydro-2H-benzo[e][1,2]oxaborinine-8-carboxylic acid] | 100 to 1000 | < 100 | – | < 100 | – | < 100
18 | O=C(CC1CCC(O)CC1)N[C@H]1Cc2cccc(C(=O)O)c2OB1O (stereo partly drawn) [Example 47, (3R)-2-hydroxy-3-(2-(4-hydroxycyclohexyl)acetamido)-3,4-dihydro-2H-benzo[e][1,2]oxaborinine-8-carboxylic acid] | 1000 to 10000 | < 100 | – | < 100 | – | < 100
